Series [1] concerns patients with thrombocytopenia caused by chronic liver disease. The series can be described thus: Example 2 Test Example 2: placebo-controlled repeated oral administration before percutaneous liver ablation with discontinuation criteria. Type of series: in vivo, human. From the text:
To patients with thrombocytopenia caused by chronic liver disease, lusutrombopag as a pretreatment of percutaneous liver ablation was orally administered repeatedly for 7 days while applying the discontinuation criteria designed in Example 1 and profile of the platelet count was studied. In the present Example, the term “ablation” refers to radiofrequency ablation.
Patients with thrombocytopenia caused by chronic liver disease who are scheduled to undergo percutaneous liver ablation.
Patients who meet the following inclusion criteria are included. • 1) Age: 20 years of age or older (at the time of consent); • 2) Patients who themselves can give a consent in writing; • 3) Patients with thrombocytopenia caused by chronic liver disease; • 4) Patients who are scheduled to undergo percutaneous liver ablation for primary liver cancer; • 5) Patients having a platelet count which is less than 5×10^4/μL at the time of screening; • 6) Patients whose ECOG* Performance Status of Grade is 0 to 1; and • 7) Patients who can practice contraception from entry to the end of observation. (Exclusion Criteria)
Patients who meet the following criteria are excluded. • 1) Patients who underwent splenectomy; • 2) Patients who have a complication presenting thrombocytopenia; • 3) Patients who underwent liver transplant; • 4) Degree of hepatic disorder classified as the Child-Pugh class of C; • 5) Hepatic encephalopathy uncontrolled by medicaments; • 6) Ascites uncontrolled by medicaments; • 7) Patients who have a complication of malignant tumor other than primary liver cancer; • 8) Patients who have a complication or a history of thrombosis or thrombotic disease; • 9) Patients who have absence of hepatopetal blood flow in the portal vein; • 10) Patients who have a complication or a history of disease with hemorrhage risk; • 11) Patients who received a therapeutic agent that affects a platelet count or underwent a therapy that affects a platelet count within 90 days before registry; • 12) Patients who received a blood product (excluding erythrocyte product) within 14 days before registry; or • 13) Patients who previously received a TPO receptor agonist. (Drugs which are Prohibited, Limited or Allowed for Coadministration During the Trial)
In each allocated group, lusutrombopag is orally administered repeatedly once daily for 7 days. After patients are monitored on day 8, they undergo percutaneous liver ablation before day 14 from initiation of administration. They are monitored until about day 30 after initiation of administration.
Lusutrombopag is orally administered repeatedly once daily for 7 days. On day 1, the drug is administered at the time of visit. On day 5 to day 7, the drug shall be administered after checking the platelet count measured on the same day. Administration of lusutrombopag shall be discontinued when the platelet count reaches to the following criteria (administration discontinuating criteria) in a clinical examination after administration of the investigational drug.
Administration discontinuating criteria: when the platelet count has increased by 2×10^4/μL or more from the platelet count before initiation of administration and the platelet count has reached to 5×10^4/μL or higher.
As the platelet count before initiation of administration, the platelet count determined within 7 days before initiation of administration was used.
Daily dose was any one of 2.0, 3.0 and 4.0 mg of lusutrombopag.
Proportion of patients who have a platelet count on day 8 after initiation of administration that increased by 2×10^4/μL or more from a platelet count before initiation of administration and reached to 5×10^4/μL or higher. […]

Series [2] deals with platelet count. The series can be described thus: Estimated PD model parameters for chronic liver disease patients (for Monte-Carlo simulation). Also noted: species or system human. The source says: (§1) Based on the PK/PD model in healthy adults as described in (Test Example 1), model parameters in chronic liver disease patients were estimated on the basis of the following assumptions.
Based on the pre-defined level of platelet count expected in chronic liver disease patients, the average and range of PLT0 were set to 3×10^4/μL and 2×10^4 to 4.9×10^4/μL, respectively.
It was reported that platelets destruction in chronic liver disease patients was promoted (see Reference 1) and the survival period of platelets was about ⅔ of that of healthy adults (see References 2 and 3). Therefore, kdeg, a parameter representing the elimination rate of platelets, was set to the value which was about 1.5 times of the value of healthy adults, i.e. 0.009 hr^−1. In addition, based on the relationship that the production rate of platelets is equal to the elimination rate of platelets at baseline, kpr, a parameter representing the production rate of platelets, was calculated from the formula: PLT0×kdeg. As a result, kpr was 0.027×10^4/μL/hr which was lower than the value in healthy adults (0.116×10^4/μL/hr). This estimated value matched the previous report that the production rate of platelets was decreased in chronic liver disease patients (see Reference 1).
It was assumed that a parameter km representing the maturation rate of platelets in chronic liver disease patients is similar to that in healthy adults. Therefore, the estimated value in healthy adults was used as km.
When the plasma concentration is sufficiently lower than EC50 (EC50>>C), the drug efficacy of lusutrombopag can be approximated by Emax/EC50. It was assumed based on the clinical data of eltrombopag, a drug having the same efficacy (see References 4 and 5) that Emax/EC50 in this trial was about 3 times of the value of healthy adults. […] Meanwhile, it was assumed that r in the patients was similar to that in healthy adults. Therefore, the value in healthy adults was used as r.
A reduction in the production rate of platelets with an increase in platelets, i.e. the negative feedback phenomenon, is represented by the formula (PLT0/PLT)^γ. […] Therefore, the negative feedback phenomenon was not taken into account in the present simulation.
As inter-individual variability of the respective PD parameters, the values in healthy adults were used.
The intra-individual variability of plasma concentration was not taken into account in the present simulation. As the intra-individual variability of a platelet count, the value in healthy adults was used.

A short description of series [3]: Estimated PK model parameters for chronic liver disease patients (for Monte-Carlo simulation). Also noted: species or system human.
Source text: as §1
PK Parameters (CL, V2/F, Q2/F, V3/F, Q3/F, V4/F, Q4/F, ktr and ka):
Therefore, as PK parameters those from healthy adults were used. As parameters ka and ktr, estimated values under the conditions of postprandial and tablets were used in line with clinical usage.

≈ marks a conversion by molar mass, not a printed value.

As to `CCCCCCO[C@@H](C)c1cccc(-c2csc(NC(=O)c3cc(Cl)c(/C=C(\C)C(=O)O)c(Cl)c3)n2)c1OC` [lusutrombopag, (E)-3-[2,6-dichloro-4-[4-[3-[(S)-1-hexyloxyethyl]-2-methoxyphenyl]-thiazol-2-ylcarbamoyl]-phenyl]-2-methylacrylic acid], in series [1] (2.0 mg once daily, n = 15), the “Endpoint 2: Number of patients who had a platelet count during the trial that increased by 2 × 10^4/μL or more from the count before initiation of administration and reached to 5 × 10^4/μL or higher” value is 10; the “Number of patients to whom administration was discontinued according to the administration discontinuating criteria” value is given as 3; the “Number of patients who received platelet transfusion” value is 3. In series [1] (3.0 mg once daily, n = 16), the “Endpoint 2: Number of patients who had a platelet count during the trial that increased by 2 × 10^4/μL or more from the count before initiation of administration and reached to 5 × 10^4/μL or higher” value is listed as 11; the “Number of patients to whom administration was discontinued according to the administration discontinuating criteria” value was 3; the “Number of patients who received platelet transfusion” value is on record as 3. Moreover, in series [1] (4.0 mg once daily, n = 15), the “Endpoint 2: Number of patients who had a platelet count during the trial that increased by 2 × 10^4/μL or more from the count before initiation of administration and reached to 5 × 10^4/μL or higher” value is 12; the “Number of patients to whom administration was discontinued according to the administration discontinuating criteria” value is reported as 5; the “Number of patients who received platelet transfusion” value is 4. For the same molecule, the “efficacy at each dose” value in series [1] (all doses (2.0, 3.0 and 4.0 mg)) was “all doses showed the efficacy”. The “patients who had a platelet count of higher than 20×10^4/μL during the observation period” value in series [1] (daily dose 2.0, 3.0 and 4.0 mg) is reported as “None”. Besides, the “kdeg, mean” value in series [2] (about 1.5 times of healthy adults) was 0.009 h⁻¹. Also, in series [2] (set by assumption), the “EC50, mean” value is recorded as 180 ng/mL (≈ 0.304 µM) and the “Emax, mean” value was 29.3. Also, in series [2] (value of healthy adults), the “km, mean” value is 0.0394 h⁻¹ and the “r, mean” value was 2.03. In series [3], the “Q3/F, mean” value was 0.946 L/h; the “Q4/F, mean” value was 0.0262 L/h; the “V3/F, mean” value is given as 6.28 L; the “V4/F, mean” value is 2.71 L. Moreover, in series [3] (postprandial and tablets), the “ka, mean” value was 0.854 h⁻¹ and the “ktr, mean” value was 1.38 h⁻¹. Also, the “CL, mean” value in series [3] (value of healthy adults used) is 0.776 L/h. The V2/F, mean in series [3] (× (1 + (BW − 63) × 0.0172)) was 15.9 L.

Values taken from patent publication US10085973B2, “Pharmaceutical composition containing a compound having a thrombopoietin receptor agonistic activity” (Shionogi & Co., Ltd., priority 2012, dated 2018).
